According to patent US20240247080A1, “GLP1/GIP/NPY2 RECEPTOR TRIPLE AGONISTS” (Boehringer Ingelheim International GmbH, priority 2022, published 2024):
Where two headings read alike, the source gives them in different places. Starred links: 1 amine or outer side, 2 acyl side, 3 side chain; linkers in the order of their positions; H or OH if unused. Positions of bridges follow the written chain, without caps; N, C: chain ends. Non-standard residues stand in square brackets, D forms with d. Groups on a side chain read outwards from the residue. Chains are numbered I, II in the order given. No end group written: not given here. *: point of attachment. C20 diacid = O=C(O)CCCCCCCCCCCCCCCCCCC(=O)*; C18 diacid = O=C(O)CCCCCCCCCCCCCCCCC(=O)*; γGlu = O=C(O)[C@H](CCC(=O)[*:2])N[*:1]; εLys = N[C@@H](CCCCN[*:1])C(=O)[*:2]; NMeR = CN[C@@H](CCCNC(=N)N)C(=O)O; Tle = CC(C)(C)[C@H](N)C(=O)O; AEEA = NCCOCCOCC(=O)O; Aib = CC(C)(N)C(=O)O

Columns and labels:
[1] = target: T1, hGLP1R (Homo sapiens, UniProt P43220); test: hGLP1R CreLuc reporter gene assay in 0.5% and 100% plasma; type: cell-based; settings: CreLuc reporter gene assay
T1 construct: expressed in transfected cells; host or cells: HEK-293 cells carrying a CRE-luciferase reporter gene
Description: (§1) Example 1: hGLPR/hGIPR/hNPY2R CreLuc Assay in 0.5% and 100% Plasma
(§2) CHO and HEK-293 recombinant cell lines express a luciferase reporter gene under control of the cAMP responsive element (CRE). As a second recombinant protein the GLP-1 and NPY2 receptors were expressed in the reporter gene HEK cells, and the GIP receptor was expressed in the reporter gene CHO cells, respectively. Stimulation of these recombinant cells with an agonist leads to an increase of intracellular cAMP levels. In the presence of cAMP, the transcription factor CRE binding protein (CREB) binds to the CRE and to the CREB binding protein (CBP), which leads to transcription of the luciferase reporter gene. Peptides upon serial-dilution in 100% DMSO were transferred into 384-well assay plates with 5 μl pre-dispensed assay buffer (1×HBSS, 20 mM HEPES, pH7.4 supplemented with 0.5% human plasma) using acoustic dispensing on a Labcyte ECHO. Cryo-preserved transgenic reporter gene cells were thawed in assay buffer. 20 μl (10.000 cells/well) were added to the plate with the peptides and incubated for 4 hours at 37° C. in a humidified incubator. Following incubation, assay plates are equilibrated to room temperature, followed by addition of 25 μl of Bright-GIo™ Luciferase reagent, incubation at room temperature for 10 minutes and analysis of luminescence (Envision Reader). Concentration response evaluation of compounds was performed with 8 concentrations of peptides (covering four decades). EC50 values were calculated by non-linear regression using sigmoid concentration-response with variable slope. The same assays were run in the presence of 100% plasma with no additional buffer constituents.

[2] = target: T2, hGIPR (Homo sapiens, UniProt P48546); test: hGIPR CreLuc reporter gene assay in 0.5% and 100% plasma; type: cell-based; settings: CreLuc reporter gene assay
T2 construct: expressed in transfected cells; host or cells: CHO cells carrying a CRE-luciferase reporter gene
T2 sequence (P48546 22-466): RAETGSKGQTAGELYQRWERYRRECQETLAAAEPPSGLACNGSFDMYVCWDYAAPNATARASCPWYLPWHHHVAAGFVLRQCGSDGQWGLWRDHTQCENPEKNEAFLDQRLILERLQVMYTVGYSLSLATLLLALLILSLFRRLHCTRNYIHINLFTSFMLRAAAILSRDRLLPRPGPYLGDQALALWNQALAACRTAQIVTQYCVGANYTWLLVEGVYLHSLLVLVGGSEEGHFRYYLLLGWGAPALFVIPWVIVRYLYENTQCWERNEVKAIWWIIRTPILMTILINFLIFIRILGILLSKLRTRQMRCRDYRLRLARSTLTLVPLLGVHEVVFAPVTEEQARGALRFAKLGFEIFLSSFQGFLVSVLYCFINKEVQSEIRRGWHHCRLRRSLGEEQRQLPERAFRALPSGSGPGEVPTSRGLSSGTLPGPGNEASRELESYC
Description: as §1, §2

[3] = 0.5% human plasma, read-out: hGLP1R 0.5% hP
[4] = 100% human plasma, read-out: hGLP1R 100% hP
[5] = 0.5% human plasma, read-out: hGIPR 0.5% hP
[6] = 100% human plasma, read-out: hGIPR 100% hP

T1 sequence (P43220 24-463): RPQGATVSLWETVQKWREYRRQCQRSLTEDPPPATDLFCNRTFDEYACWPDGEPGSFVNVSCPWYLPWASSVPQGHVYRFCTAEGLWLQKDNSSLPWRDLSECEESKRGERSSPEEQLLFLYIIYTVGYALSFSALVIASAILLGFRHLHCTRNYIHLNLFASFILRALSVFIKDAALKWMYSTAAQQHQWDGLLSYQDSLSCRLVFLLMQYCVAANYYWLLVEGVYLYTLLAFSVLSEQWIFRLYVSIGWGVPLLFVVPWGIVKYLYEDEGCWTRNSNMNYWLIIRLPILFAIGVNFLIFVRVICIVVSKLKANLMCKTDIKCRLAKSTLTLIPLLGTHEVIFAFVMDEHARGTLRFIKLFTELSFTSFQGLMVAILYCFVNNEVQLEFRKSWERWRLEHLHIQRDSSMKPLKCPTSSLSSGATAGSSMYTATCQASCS

Row | EC50 [1, 3] [nM] | EC50 [1, 4] [nM] | EC50 [2, 5] [nM] | EC50 [2, 6] [nM] | Substance | EC50 ([1]; hGLP1R 0.5% hP, 0.5% human plasma) [nM] | EC50 ([1]; hGLP1R 100% hP, 100% human plasma) [nM] | EC50 ([2]; hGIPR 0.5% hP, 0.5% human plasma) [nM] | EC50 ([2]; hGIPR 100% hP, 100% human plasma) [nM]
1 | 0.1 | 2.21 | 0.13 | 0.65 | Y[Aib]EGTFTSDYSI[Aib]LEKQAQ[Aib]AFVQWLIK([AEEA-AEEA-γGlu-γGlu-γGlu-C18 diacid])GGPSEGASLRHYYNWLTRQRY-NH2 [Compound 266, Y-Aib-E-G-T-F-T-S-D-Y-S-I-Aib-L-E-K-Q-A-Q-Aib-A-F-V-Q-W-L-I-K(1,3)-GGPSEGASLRHYYNWLTRQRY-NH2.C18DA-gGlu-gGlu-gGlu-OEG-OEG(1,2)] |  |  |  | 
2 | 0.09 | 0.82 | 0.06 | 0.4 | H-Y[Aib]EGTFTSDYSI[Aib]LEKQAQ[Aib]AFVEWLIK([εLys-γGlu-γGlu-γGlu-γGlu-γGlu-γGlu-C20 diacid])GGPSSGAS[Aib]RHYYNWLTRQ[NMeR]Y-NH2 [Compound 39, Y-Aib-E-G-T-F-T-S-D-Y-S-I-Aib-L-E-K-Q-A-Q-Aib-A-F-V-E-W-L-I-K(1,3)-G-G-P-S-S-G-A-S-Aib-R-H-Y-Y-N-W-L-T-R-Q-NMeR-Y-NH2.C20DA-gGlu-gGlu-gGlu-gGlu-gGlu-gGlu-eLys(1,2)] |  |  |  | 
3 | 0.41 |  | 0.23 |  | H-Y[Aib]EGTFTSDYSI[Aib]LEKQAQ[Aib]EFVEWLIK([AEEA-γGlu-γGlu-γGlu-C18 diacid])GGPSEGASLRHYYNWLTRQRY-NH2 [Compound 274, Y-Aib-E-G-T-F-T-S-D-Y-S-I-Aib-L-E-K-Q-A-Q-Aib-E-F-V-E-W-L-I-K(1,3)-GGPSEGASLRHYYNWLTRQRY-NH2.C18DA-gGlu-gGlu-gGlu-OEG(1,2)] |  |  |  | 
4 | 0.09 |  | 0.25 | 1.66 | H-Y[Aib]EGTFTSDYSI[Aib]LEKQAQ[Aib]AFVEWLIK([εLys-γGlu-γGlu-γGlu-γGlu-γGlu-γGlu-C20 diacid])GGPSSGAS[Aib]RHY[Aib]NR[Aib]TRQRY-NH2 [Compound 4, Y-Aib-E-G-T-F-T-S-D-Y-S-I-Aib-L-E-K-Q-A-Q-Aib-A-F-V-E-W-L-I-K(1,3)-G-G-P-S-S-G-A-S-Aib-R-H-Y-Aib-N-R-Aib-T-R-Q-R-Y-NH2.C20DA-gGlu-gGlu-gGlu-gGlu-gGlu-gGlu-eLys(1,2)] |  |  |  | 
5 |  |  |  |  | H-Y[Aib]EGTFTSDLSI[Aib]LEKQAQ[Aib]AFVEWLIK([εLys-γGlu-γGlu-γGlu-γGlu-γGlu-γGlu-C20 diacid])GGPSSGASLRHYYNWLTRQRY-NH2 [Compound 172, Y-Aib-E-G-T-F-T-S-D-L-S-I-Aib-L-E-K-Q-A-Q-Aib-A-F-V-E-W-L-I-K(1,3)-GGPSSGASLRHYYNWLTRQRY-NH2.C20DA-gGlu-gGlu-gGlu-gGlu-gGlu-gGlu-eLys(1,2)] | 0.07 | 2 | 0.21 | 1.83
6 | 0.17 |  | 0.16 | 1.23 | Y[Aib]EGTFTSDYSI[Aib]LEKQAQ[Aib]AFIEWLIK([AEEA-AEEA-γGlu-γGlu-γGlu-γGlu-C18 diacid])GGPSEGASLRHYYNWLTRQRY-NH2 [Compound 258, Y-Aib-E-G-T-F-T-S-D-Y-S-I-Aib-L-E-K-Q-A-Q-Aib-A-F-I-E-W-L-I-K(1,3)-GGPSEGASLRHYYNWLTRQRY-NH2.C18DA-gGlu-gGlu-gGlu-glu-OEG-OEG(1,2)] |  |  |  | 
7 | 0.11 |  | 0.2 | 1.5 | H-Y[Aib]EGTFTSDYSI[Aib]LEKQAQ[Aib]AFVEWLIK([εLys-γGlu-γGlu-γGlu-γGlu-γGlu-γGlu-C20 diacid])GGPRSGASLRHYYNWLTRQRY-NH2 [Compound 168, Y-Aib-E-G-T-F-T-S-D-Y-S-I-Aib-L-E-K-Q-A-Q-Aib-A-F-V-E-W-L-I-K(1,3)-GGPRSGASLRHYYNWLTRQRY-NH2.C20DA-gGlu-gGlu-gGlu-gGlu-gGlu-gGlu-eLys(1,2)] |  |  |  | 
8 | 0.05 |  | 0.06 | 0.55 | H-Y[Aib]EGTFTSDYSI[Aib]LEKQAQ[Aib]AFVEWLIK([εLys-γGlu-γGlu-γGlu-γGlu-γGlu-γGlu-C20 diacid])GGPSSGAS[Aib]RHYYNWLTRQRY-NH2 [Compound 118, Y-Aib-E-G-T-F-T-S-D-Y-S-I-Aib-L-E-K-Q-A-Q-Aib-A-F-V-E-W-L-I-K(1,3)-G-G-P-S-S-G-A-S-Aib-R-H-Y-Y-N-W-L-T-R-Q-R-Y-NH2.C20DA-gGlu-gGlu-gGlu-gGlu-gGlu-gGlu-eLys(1,2)] |  |  |  | 
9 | 0.2 |  | 0.25 |  | I: H-Y[Aib]EGTFTSDYSI[Aib]LEKQAQ[Aib]AFVQWLIKGGPEEGASLRHYYNWLTRQRY-NH2 / II: {C18 diacid}-EEEEEE[εLys] (amide I:28-II:C) [Compound 196, Y-Aib-E-G-T-F-T-S-D-Y-S-I-Aib-L-E-K-Q-A-Q-Aib-A-F-V-Q-W-L-I-K(1,3)-GGPEEGASLRHYYNWLTRQRY-NH2.C18DA-E-E-E-E-E-E-eLys(1,2)] |  |  |  | 
10 | 0.15 |  | 0.18 | 1.15 | H-Y[Aib]EGTFTSDYSI[Aib]LEKQAQ[Aib]AFVEWLIK([AEEA-AEEA-γGlu-γGlu-γGlu-γGlu-γGlu-C18 diacid])GGPSSGASLRHYYNWLTRQRY-NH2 [Compound 261, Y-Aib-E-G-T-F-T-S-D-Y-S-I-Aib-L-E-K-Q-A-Q-Aib-A-F-V-E-W-L-I-K(1,3)-GGPSSGASLRHYYNWLTRQRY-NH2.C18DA-gGlu-gGlu-gGlu-gGlu-gGlu-OEG-OEG(1,2)] |  |  |  | 
11 | 0.11 | 3.95 | 0.36 | 0.56 | H-Y[Aib]EGTFTSDYSI[Aib]LEKQAQ[Aib]AFVQWLIK([εLys-γGlu-γGlu-γGlu-γGlu-γGlu-C20 diacid])GGPESGASLRHYYNWLTRQRY-NH2 [Compound 61, Y-Aib-E-G-T-F-T-S-D-Y-S-I-Aib-L-E-K-Q-A-Q-Aib-A-F-V-Q-W-L-I-K(1,3)-GGPESGASLRHYYNWLTRQRY-NH2.C20DA-gGlu-gGlu-gGlu-gGlu-gGlu-eLys(1,2)] |  |  |  | 
12 | 0.11 |  | 0.16 | 1.81 | H-Y[Aib]EGTFTSDYSI[Aib]LEKQAQ[Aib]AFVEWLIK([AEEA-γGlu-γGlu-γGlu-C18 diacid])GGPSEGASLRHYYNWLTRQRY-NH2 [Compound 300, Y-Aib-E-G-T-F-T-S-D-Y-S-I-Aib-L-E-K-Q-A-Q-Aib-A-F-V-E-W-L-I-K(1,3)-GGPSEGASLRHYYNWLTRQRY-NH2.C18DA-gGlu-gGlu-gGlu-OEG(1,2)] |  |  |  | 
13 | 0.15 | 2.87 | 0.29 |  | H-Y[Aib]EGTFTSDYSI[Aib]LEKQAQ[Aib]AFVEWLIK([εLys-γGlu-γGlu-γGlu-γGlu-γGlu-γGlu-C20 diacid])GGPSSGADLRHYLNWLTRQRY-NH2 [Compound 72, Y-Aib-E-G-T-F-T-S-D-Y-S-I-Aib-L-E-K-Q-A-Q-Aib-A-F-V-E-W-L-I-K(1,3)-GGPSSGADLRHYLNWLTRQRY-NH2.C20DA-gGlu-gGlu-gGlu-gGlu-gGlu-gGlu-eLys(1,2)] |  |  |  | 
14 | 0.12 |  | 0.28 | 1.5 | H-Y[Aib]EGTFTSDYSI[Aib]LEKQAQ[Aib]AFVEWLIK([εLys-γGlu-γGlu-γGlu-γGlu-γGlu-γGlu-C20 diacid])GGPSSGASLRHYYNW[Tle]TRQRY-NH2 [Compound 137, Y-Aib-E-G-T-F-T-S-D-Y-S-I-Aib-L-E-K-Q-A-Q-Aib-A-F-V-E-W-L-I-K(1,3)-G-G-P-S-S-G-A-S-L-R-H-Y-Y-N-W-Tle-T-R-Q-R-Y-NH2.C20DA-gGlu-gGlu-gGlu-gGlu-gGlu-gGlu-eLys(1,2)] |  |  |  | 
15 | 0.11 |  | 0.24 | 1.44 | H-Y[Aib]EGTFTSDYSI[Aib]LEKQAQ[Aib]AFVQWLIK([εLys-γGlu-γGlu-γGlu-γGlu-γGlu-γGlu-C20 diacid])GGPESGASLRHYYNWLTRQRY-NH2 [Compound 37, Y-Aib-E-G-T-F-T-S-D-Y-S-I-Aib-L-E-K-Q-A-Q-Aib-A-F-V-Q-W-L-I-K(1,3)-GGPESGASLRHYYNWLTRQRY-NH2.C20DA-gGlu-gGlu-gGlu-gGlu-gGlu-gGlu-eLys(1,2)] |  |  |  | 
